The values below come from article PMC7921015, “Spatiotemporal GLP-1 and GIP receptor signaling and trafficking/recycling dynamics induced by selected receptor mono- and dual-agonists” (Molecular Metabolism, 2021).

The target of assay [1] is T1, human GIPR (Homo sapiens, UniProt P48546).
T1 sequence (P48546 22-466): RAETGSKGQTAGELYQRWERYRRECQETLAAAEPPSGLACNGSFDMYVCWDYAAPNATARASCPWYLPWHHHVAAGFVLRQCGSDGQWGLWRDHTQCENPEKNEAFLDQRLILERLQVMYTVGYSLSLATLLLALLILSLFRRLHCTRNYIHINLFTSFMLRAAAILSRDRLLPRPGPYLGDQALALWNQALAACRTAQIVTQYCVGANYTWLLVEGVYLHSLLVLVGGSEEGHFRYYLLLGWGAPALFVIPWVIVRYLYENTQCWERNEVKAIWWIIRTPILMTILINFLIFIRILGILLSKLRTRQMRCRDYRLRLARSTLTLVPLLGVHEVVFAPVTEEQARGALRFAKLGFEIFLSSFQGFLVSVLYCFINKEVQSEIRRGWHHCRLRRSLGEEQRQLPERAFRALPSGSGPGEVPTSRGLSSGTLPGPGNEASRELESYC
The assay is described as follows: GPCR internalization assay (loss of BRET with Venus-KRAS), GIPR. It is filed as cell-based. To be noted: HEK293T, hGIPR-Rluc8 + Venus-KRAS, iAUC 20 min. (In general: BRET reads energy transfer from a luciferase to a nearby fluorophore.)

Assay [2] deals with T1, human GIPR. In words: Gαq (mini-G) recruitment BRET assay, GIPR. It counts as cell-based. The settings on record: HEK293T, GIPR-GFP + NLuc-mini-G, +iAUC 60 min.
The target of assay [3] is T2, human GLP-1R (Homo sapiens, UniProt P43220).
T2 construct: host or cells: HEK293T
T2 sequence (P43220 24-463): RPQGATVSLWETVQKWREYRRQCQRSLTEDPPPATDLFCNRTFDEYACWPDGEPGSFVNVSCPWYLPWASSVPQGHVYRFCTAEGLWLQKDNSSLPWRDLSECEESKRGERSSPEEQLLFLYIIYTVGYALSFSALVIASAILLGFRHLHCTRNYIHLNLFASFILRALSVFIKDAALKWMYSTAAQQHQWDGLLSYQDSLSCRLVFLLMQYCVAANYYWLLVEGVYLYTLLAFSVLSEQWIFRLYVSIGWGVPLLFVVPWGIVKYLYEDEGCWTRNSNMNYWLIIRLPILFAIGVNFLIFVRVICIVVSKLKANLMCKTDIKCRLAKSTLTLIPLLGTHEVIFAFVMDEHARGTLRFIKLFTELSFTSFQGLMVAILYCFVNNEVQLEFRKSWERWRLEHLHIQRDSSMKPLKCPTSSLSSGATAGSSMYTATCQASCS
The assay is described as follows: GPCR internalization assay (loss of BRET with Venus-KRAS), GLP-1R. To be noted: HEK293T, hGLP-1R-Rluc8 + Venus-KRAS, iAUC 60 min. It is filed as cell-based.

In assay [4] the target is T2, human GLP-1R. In words: β-arrestin 1 recruitment BRET assay, GLP-1R. It is filed as cell-based. The settings on record: HEK293T, GLP-1R-GFP + β-arrestin1-RLUC8, BRET, +iAUC 30 min. How it is done:
(§1) The cells were seeded (700,000 cells/well) in 6-well plates and incubated to ∼70% confluency in complete media supplemented with 10% FBS and 1% Pen-Strep. […] Baseline measurements were taken after 5 min of incubation with coelenterazine-h or NanoGlo. The cells were then treated with a vehicle or the respective agonists. […] The temporal data of the vehicle-corrected agonist measurement was then normalized to the baseline reading of the same well. The first BRET reading following treatment with agonist/vehicle was the subsequent measurement after the zero time point. Positive or negative incremental areas under the curves (+iAUC/-iAUC) were calculated where noted. Each experiment was independently performed at least three times, with at least two technical replicates for each group.
(§2) Co-localization of β-arrestin1/2-RLUC8 with GLP-1R-GFP or GIPR-GFP was assessed.
(§3) Data are represented as means ± S.E.M. Each experiment was independently conducted at least three times, each with at least two technical replicates. […] Dose responses were fitted using non-linear regression. pEC50 and EC50 values were calculated using GraphPad Prism 8.0 (GraphPad, San Diego, CA, USA). Statistical analyses were calculated in GraphPad 8.0 using one-way analysis of variance (ANOVA) and corrected with Tukey's or Bonferroni's multiple comparison test. […]
(In general: Arrestin recruitment assays detect the binding of arrestin to an activated receptor.)

The target in assay [5] is T1, human GIPR. The assay is described as follows: Gαs (mini-G) recruitment BRET assay, GIPR. It counts as cell-based. The settings on record: HEK293T, GIPR-GFP + NLuc-mini-G, +iAUC 60 min.
For assay [6], the target named is T2, human GLP-1R. The assay is described as follows: Gαq (mini-G) recruitment BRET assay, GLP-1R. It counts as cell-based. To be noted: HEK293T, GLP-1R-GFP + NLuc-mini-G, +iAUC 60 min.
Assay [7] has as its target T2, human GLP-1R. In words: cAMP assay (CAMYEL BRET sensor), GLP-1R. It is filed as cell-based. To be noted: CAMYEL sensor, no IBMX, mean ± SEM, at least 3 experiments, SEM. How it is done:
as §1
(§4) CAMYEL, a cAMP sensor using YFP-Epac-RLuc was utilized to quantify cAMP accumulation with the temporal resolution. Then, 500 ng of CAMYEL DNA was co-transfected with 500 ng of DNA of untagged GLP-1R or GIPR per well in a 6-well plate. The experiments were performed in the absence of 3-isobutyl-1-methylxanthine (IBMX).
(§5) Data are represented as means ± S.E.M. Each experiment was independently conducted at least three times, each with at least two technical replicates. […] Dose responses were fitted using non-linear regression. pEC50 and EC50 values were calculated using GraphPad Prism 8.0 (GraphPad, San Diego, CA, USA). Statistical analyses were calculated in GraphPad 8.0 using one-way analysis of variance (ANOVA) and corrected with Tukey's or Bonferroni's multiple comparison test. Differences are considered significant with an adjusted p value < 0.05.
(Cyclic AMP is a second messenger, typically raised through Gs and lowered through Gi signalling.)

The target of assay [8] is T1, human GIPR. The assay is described as follows: β-arrestin 2 recruitment BRET assay, GIPR. It counts as cell-based. To be noted: HEK293T, GIPR-GFP + β-arrestin2-RLUC8, BRET, +iAUC 30 min. How it is done:
as §1, §2, §5

Assay [9] concerns the target T1, human GIPR. The assay is described as follows: cAMP assay (CAMYEL BRET sensor), GIPR. It counts as cell-based. To be noted: HEK293T, GIPR, CAMYEL sensor, no IBMX, +iAUC 25 min. How it is done: as §1, §4, §5
Assay [10] has as its target T1, human GIPR. In words: β-arrestin 1 recruitment BRET assay, GIPR. It counts as cell-based. The settings on record: HEK293T, GIPR-GFP + β-arrestin1-RLUC8, BRET, +iAUC 30 min. How it is done: as §1, §2, §5
Assay [11] concerns the target T2, human GLP-1R. In words: Gαs (mini-G) recruitment BRET assay, GLP-1R. It counts as cell-based. The settings on record: HEK293T, GLP-1R-GFP + NLuc-mini-G, +iAUC 60 min.
The target in assay [12] is T2, human GLP-1R. The assay is described as follows: β-arrestin 2 recruitment BRET assay, GLP-1R. It is filed as cell-based. The settings on record: HEK293T, GLP-1R-GFP + β-arrestin2-RLUC8, BRET, +iAUC 30 min. How it is done:
as §1, §2, §3

For assay [13], the target named is Human GIPR-turbo GFP (human) (UniProt P48546).
In assay [14] the target is Human GLP-1R-GFP (human) (UniProt P43220).
Chain of Human GLP-1R-GFP (human) (P43220 24-463): as above
In assay [15] the target is Human GIPR-turbo GFP (human) (UniProt P48546). The source holds these as a separate data set.
For assay [16], the target named is Human GLP-1R-GFP (human) (UniProt P43220). The source holds these as a separate data set.
Where [17] appears, read: read-out: Receptor Internalization EC50.
The mark [18] stands for this setting: read-out: β-arr1 Recruitment EC50.
[19] abbreviates: HEK-293T, mean ± SEM, at least 3 experiments, SEM.
Where [20] appears, read: read-out: β-arr2 Recruitment EC50.

What is called Emax is the size of the effect at its maximum, as opposed to the concentration needed. Take `CCCCCCCCCCCCCCCC(=O)NCCCC[C@H](NC(=O)[C@H](CO)NC(=O)[C@@H]1CCCN1C(=O)[C@@H]1CCCN1C(=O)[C@@H]1CCCN1C(=O)[C@H](C)NC(=O)CNC(=O)[C@H](CO)NC(=O)[C@H](CO)NC(=O)[C@@H]1CCCN1C(=O)CNC(=O)CNC(=O)[C@H](C)NC(=O)[C@H](CC(C)C)NC(=O)[C@H](CC(C)C)NC(=O)[C@H](Cc1c[nH]c2ccccc12)NC(=O)[C@H](CC(N)=O)NC(=O)[C@@H](NC(=O)[C@H](Cc1ccccc1)NC(=O)[C@H](CCC(=O)O)NC(=O)C(C)(C)NC(=O)[C@H](C)NC(=O)[C@H](C)NC(=O)[C@H](CCC(N)=O)NC(=O)[C@H](CCCCN)NC(=O)[C@H](CC(=O)O)NC(=O)[C@H](CC(C)C)NC(=O)[C@H](Cc1ccc(O)cc1)NC(=O)[C@@H](NC(=O)[C@H](CO)NC(=O)[C@@H](NC(=O)[C@H](CC(=O)O)NC(=O)[C@H](CO)NC(=O)[C@@H](NC(=O)[C@H](Cc1ccccc1)NC(=O)[C@@H](NC(=O)CNC(=O)[C@H](CCC(=O)O)NC(=O)C(C)(C)NC(=O)[C@@H](N)Cc1c[nH]cn1)[C@@H](C)O)[C@@H](C)O)C(C)C)[C@@H](C)CC)C(C)C)C(N)=O` [fatty acyl-GLP-1]: the EC50 was more than 1000 nM on human GIPR [1] (mean ± SEM, read-out: Receptor Internalization pEC50 (converted)); more than 1000 nM on human GIPR [1] (setting [17]); more than 1000 nM at human GIPR [2] (mean ± SEM, read-out: Gαq Recruitment pEC50 (converted)); more than 1000 nM at human GIPR [2] (read-out: Gαq Recruitment EC50); 490 nM at human GLP-1R [3] (setting [17]); 358 nM at human GLP-1R [4] (setting [18]). Moreover, the EC50 was more than 1000 nM on human GIPR [5] (mean ± SEM, read-out: Gαs Recruitment pEC50 (converted)); more than 1000 nM on human GIPR [5] (read-out: Gαs Recruitment EC50); 305 nM on human GLP-1R [6]; 0.363 nM at human GLP-1R [7] (HEK293T, GLP-1R, +iAUC 25 min, read-out: cAMP pEC50 (converted)); more than 1000 nM on human GIPR [8] (mean ± SEM, read-out: β-arr2 Recruitment pEC50 (converted)); more than 1000 nM at human GIPR [8] (setting [20]). Moreover, the EC50 at human GIPR [9] (mean ± SEM, read-out: cAMP pEC50 (converted)) was more than 1000 nM; at human GIPR [9] (read-out: cAMP EC50), more than 1000 nM; on human GIPR [10] (setting [18]), more than 1000 nM; at human GIPR [10] (read-out: β-arr1 Recruitment pEC50 (converted)) it was more than 1000 nM; at human GLP-1R [11], 423 nM; on human GLP-1R [12] (setting [20]), 188 nM. Also, the Emax on human GLP-1R [3] (HEK-293T, mean ± SEM, at least 3 experiments, SEM, read-out: Receptor Internalization Emax (% GLP-1)) was 108 ± 4%; at human GLP-1R [4] (HEK-293T, mean ± SEM, at least 3 experiments, SEM, read-out: β-arr1 Recruitment Emax (% GLP-1)), 88 ± 4%; on human GLP-1R [6] (setting [19]) it was 101 ± 5%; on human GLP-1R [7] (HEK-293T, HEK293T transiently expressing untagged GLP-1R, +iAUC of 25 min response, 3-parameter fit) it was 99 ± 3%; on human GLP-1R [11] (setting [19]) it was 98 ± 5%; on human GLP-1R [12] (HEK-293T, mean ± SEM, at least 3 experiments, SEM, read-out: β-arr2 Recruitment Emax (% GLP-1)) it was 86 ± 3%.
With MAR709 (peptide), the GIPR internalization Emax, % of GIP (1–42) (loss of BRET between hGIPR-Rluc8 and Venus-KRAS, HEK293T) in [13] is 4%. In the assay with Human GLP-1R-GFP (human) [14], this compound registered a GLP-1R co-localization with Rab5 early endosomes (BRET of hGLP-1R-Rluc8 with Venus-Rab5, HEK293T), 1 μM, % of GLP-1 (7–36 amide) of 68% and a GLP-1R co-localization with Rab7 late endosomes (BRET of hGLP-1R-Rluc8 with Venus-Rab7, HEK293T), % of GLP-1 (7–36 amide) of 62%. In assay [15], the GIPR co-localization with Rab5^+ endosomes (BRET of hGIPR-Rluc8 with Venus-Rab5, HEK293T), % of the response to GIP (1–42), fatty acyl-GIP and tirzepatide was 66%. Also, the GLP-1R internalization Emax, % of GLP-1 (7–36 amide) (loss of BRET between hGLP-1R-Rluc8 and Venus-KRAS, HEK293T) in the assay with Human GLP-1R-GFP (human) [16] amounted to 51%.
